According to patent publication US20040219104A1, “Methods for treatment of tumors” (priority 2003, published 2004):

Test system: JJ5 Breast Cancer cells
Assay: Kinetics of binding, internalization and retention of radioactivity in JJ5 breast cancer cells
Type: cell-based, human
Details: 37° C.
Procedure: For the normal breast cell line HBL-100, 8000 EGFR/cell has been reported. The expression of EGFR in breast cancer cell lines has a reported range of 800 EGFR/cell for MCF-7 cells to […] for MDA-MB-468 cells. […] Utilizing the Auger electron emitter ^111In was used in the initial experiments to illustrate the utility of the invention using EGF-^111In-labeled transferrin conjugates. The EGF-^111In-labeled transferrin (0.25-80 ng) was incubated with 1.5×10^6 cells/dish JJ5 Breast Cancer (prepared from BCBM JJ5) cells in 1 mL of 0.1% human serum albumin in 35 mm multiwell culture dishes at 37° C. for 30 minutes. The cells were transferred to a centrifuge tube and centrifuged. The cell pellet was separated from the supernatant and counted in a g-scintillation counter to determine bound (B) and free (F) radioactivity. Non-specific binding was determined by conducting the assay in 100 nM hEGF. The kinetics of binding was determined by incubating 1 ng of EGF-^111In-labeled transferrin conjugate with 3×10^6 JJ5 Breast Cancer cells at 37° C. and determining the proportion of radioactivity bound to the cells at various times up to 24 hours. Internalized fraction was measured by determining the proportion of radioactivity which could not be displaced from the cell surface by 100 nM hEGF. […]

Q: With “EGF-^111In-labeled transferrin conjugate: conjugate containing human epidermal growth factor (EGF) linked (biotin/streptavidin linker) to 111In-radiolabeled human transferrin” as the substance, how does the “binding by the breast cancer cells (kinetics)” value read?
A: The value was “rapidly bound”.
